From patent US20260217767A1, “NOVEL A4B7 THIOETHER PEPTIDE DIMER ANTAGONISTS” (Protagonist Therapeutics, Inc., priority 2014, published 2026)
*1 amine or outer side, *2 acyl side, *3 side chain or, on linkers, in order; H or OH if unused. Where a SMILES comes first, the peptide text is derived from it. Bridges are numbered along the chain shown (N, C = ends). [ ]: non-standard residue; d: D form. Phe(4-tBu) = CC(C)(C)c1ccc(C[C@H](N)C(=O)O)cc1; NMeR = CN[C@@H](CCCNC(=N)N)C(=O)O; β3hE = N[C@@H](CCC(=O)O)CC(=O)O; X1 = O=C(c1ccccc1C[*:2])[*:1]; Pen = CC(C)(S)[C@H](N)C(=O)O

Target: T1, RPMI 8866 cells (Homo sapiens, UniProt P13612+P26010)
T1 sequence (P13612 34-1032): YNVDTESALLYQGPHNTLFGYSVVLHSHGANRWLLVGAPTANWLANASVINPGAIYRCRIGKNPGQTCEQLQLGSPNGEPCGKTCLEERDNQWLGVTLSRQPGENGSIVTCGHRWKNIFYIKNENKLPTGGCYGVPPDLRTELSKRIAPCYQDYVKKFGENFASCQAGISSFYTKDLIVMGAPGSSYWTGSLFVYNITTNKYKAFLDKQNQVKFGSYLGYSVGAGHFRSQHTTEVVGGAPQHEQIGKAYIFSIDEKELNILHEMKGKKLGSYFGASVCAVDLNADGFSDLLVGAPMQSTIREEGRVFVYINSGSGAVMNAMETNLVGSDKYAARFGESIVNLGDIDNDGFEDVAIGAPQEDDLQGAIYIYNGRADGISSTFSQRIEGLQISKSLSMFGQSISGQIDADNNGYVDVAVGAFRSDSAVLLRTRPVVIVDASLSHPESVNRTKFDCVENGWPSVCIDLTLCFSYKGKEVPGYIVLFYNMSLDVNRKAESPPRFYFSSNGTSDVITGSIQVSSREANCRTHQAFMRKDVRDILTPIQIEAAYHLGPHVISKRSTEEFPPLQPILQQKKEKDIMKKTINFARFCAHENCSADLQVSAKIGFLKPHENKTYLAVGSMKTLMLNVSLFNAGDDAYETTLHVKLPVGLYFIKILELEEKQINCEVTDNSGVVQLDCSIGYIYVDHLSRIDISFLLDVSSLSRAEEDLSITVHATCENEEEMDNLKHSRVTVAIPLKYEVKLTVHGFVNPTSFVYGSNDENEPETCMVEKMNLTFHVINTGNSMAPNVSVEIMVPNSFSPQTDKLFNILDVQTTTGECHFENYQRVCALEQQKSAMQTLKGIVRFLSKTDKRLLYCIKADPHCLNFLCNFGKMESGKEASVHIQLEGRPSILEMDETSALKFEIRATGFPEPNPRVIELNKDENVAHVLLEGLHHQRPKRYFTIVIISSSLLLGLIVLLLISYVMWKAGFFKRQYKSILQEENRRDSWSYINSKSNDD
T1 sequence (P26010 20-798): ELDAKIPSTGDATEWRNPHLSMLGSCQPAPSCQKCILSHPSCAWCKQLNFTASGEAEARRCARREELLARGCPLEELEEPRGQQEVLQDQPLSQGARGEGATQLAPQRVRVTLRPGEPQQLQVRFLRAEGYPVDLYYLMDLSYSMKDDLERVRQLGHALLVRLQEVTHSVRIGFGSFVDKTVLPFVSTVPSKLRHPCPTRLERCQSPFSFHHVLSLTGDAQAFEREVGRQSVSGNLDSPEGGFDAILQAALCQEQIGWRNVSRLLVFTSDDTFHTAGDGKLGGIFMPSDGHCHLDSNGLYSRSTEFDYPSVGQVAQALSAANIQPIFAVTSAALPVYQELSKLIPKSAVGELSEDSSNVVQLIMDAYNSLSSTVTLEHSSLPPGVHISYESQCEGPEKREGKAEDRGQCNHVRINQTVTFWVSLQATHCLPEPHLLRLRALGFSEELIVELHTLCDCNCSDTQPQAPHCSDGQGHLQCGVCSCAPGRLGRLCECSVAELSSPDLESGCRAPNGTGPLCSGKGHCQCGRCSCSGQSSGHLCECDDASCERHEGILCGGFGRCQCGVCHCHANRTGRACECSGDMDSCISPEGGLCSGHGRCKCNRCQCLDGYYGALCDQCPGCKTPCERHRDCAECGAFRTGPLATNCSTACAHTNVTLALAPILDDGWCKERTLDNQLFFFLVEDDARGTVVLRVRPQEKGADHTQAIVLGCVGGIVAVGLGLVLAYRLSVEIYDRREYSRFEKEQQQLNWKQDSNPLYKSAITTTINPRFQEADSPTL
Assay: α4β7-MAdCAM Cell Adhesion Assay
Type: cell-based
Conditions: thioether monomer peptides, Table 6; read-out: Cell-Adhesion A4B7
Method: α4β7-MAdCAM Cell Adhesion Assay
RPMI 8866 cells (Sigma #95041316) were cultured in RPMI 1640 HEPES medium (Invitrogen #22400-089) supplemented with 10% serum (Fetal Bovine Serum, Invitrogen #16140-071), 1 mM sodium pyruvate (Invitrogen #11360-070), 2 mM L-glutamine (Invitrogen #25030-081) and Penicillin-Streptomycin (Invitrogen #15140-122) at 100 units of penicillin and 100 μg of streptomycin per ml. The cells were washed two times in DMEM medium (ATCC #30-2002) supplemented with 0.1% BSA, 10 mM HEPES pH 7 and 1 mM MnCl2. The cells were re-suspended in supplemented DMEM medium at a density of 4×10^6 cells/ml.
A Nunc MaxiSorp plate was coated with rh MAdCAM-1/Fc Chimera (R&D #6065-MC) at 200 ng per well in 50 ul per well in 1×PBS and incubated at 4° C. overnight. The solution was then removed by shaking, blocked with 250 ul per well PBS containing 1% BSA, and incubated at 37° C. for 1 hr. The solution was removed by shaking. Peptides were diluted by serial dilution in a final volume of 50 ul per well (2× concentration). To each well, 50 ul of cells (200,000 cells) were added and the plate was incubated at 37° C., 5% CO2 for 30-45 min to allow cell adhesion. The wells were washed manually three times (100 ul per wash) with supplemented DMEM. After the final wash, 100 μl/well of supplemented DMEM and 10 ul/well of MTT reagent (ATTC cat #30-1010K) were added. The plate was incubated at 37° C., 5% CO2 for 2-3 hrs until a purple precipitate is visible. 100 ul of Detergent Reagent (ATTC cat #30-1010K) was added to each well. The plate was covered from the light, wrapped in Parafilm to prevent evaporation, and left overnight at room temperature in the dark. The plate was shaken for 5 min and the absorbance at 570 nm is measured. To calculate the dose response, the absorbance value of control wells not containing cells was subtracted from each test well.

Compound	IC50
CC(C)C[C@@H]1NC(=O)[C@H]([C@@H](C)O)NC(=O)[C@H](CC(=O)O)NC(=O)[C@H](C)NC(=O)[C@H](CCCNC(=N)N)N(C)C(=O)c2ccccc2CSC(C)(C)[C@@H](C(=O)N[C@@H](Cc2ccc(C(C)(C)C)cc2)C(=O)N[C@@H](CCC(=O)O)CC(N)=O)NC1=O [compound 139] ([NMeR]ADTL[Pen][Phe(4-tBu)][β3hE]-NH2; linker N-6 via X1)	0.025 to 0.1 µM
CC(C)C[C@@H]1NC(=O)[C@H]([C@@H](C)O)NC(=O)[C@H](CC(=O)O)NC(=O)[C@H](CO)NC(=O)[C@H](CCCNC(=N)N)N(C)C(=O)c2cccc(c2)CSC(C)(C)[C@@H](C(=O)N[C@@H](Cc2c[nH]c3ccccc23)C(=O)N[C@H](CCC(=O)O)C(=O)N[C@H](CCCCN)C(N)=O)NC1=O [compound 111] (HELM PEPTIDE1{[meR].S.D.T.L.[Pen].W.[dE].[dK].[am]}|CHEM1{[O=C(c1cccc(C[*:2])c1)[*:1]]}$PEPTIDE1,CHEM1,1:R1-1:R1|PEPTIDE1,CHEM1,6:R3-1:R2$$$V2.0)	> 1 µM

Same assay, conditions: thioether peptide dimers, Table 7; read-out: Cell-Adhesion A4B7

Compound	IC50
CC(C)C[C@@H]1NC(=O)[C@H]([C@@H](C)O)NC(=O)[C@H](CC(=O)O)NC(=O)[C@H](CO)NC(=O)[C@H](CCCNC(=N)N)N(C)C(=O)c2ccccc2CSC(C)(C)[C@@H](C(=O)N[C@@H](Cc2c[nH]c3ccccc23)C(=O)N[C@H](CCC(=O)O)C(=O)N[C@H](Cc2ccccc2)C(=O)N[C@H](CCCCN)C(N)=O)NC1=O [compound 198] (HELM PEPTIDE1{[meR].S.D.T.L.[Pen].W.[dE].[dF].[dK].[am]}|CHEM1{[O=C(c1ccccc1C[*:2])[*:1]]}$PEPTIDE1,CHEM1,1:R1-1:R1|PEPTIDE1,CHEM1,6:R3-1:R2$$$V2.0)	< 0.025 µM
CC(C)C[C@@H]1NC(=O)[C@H]([C@@H](C)O)NC(=O)[C@H](CC(=O)O)NC(=O)[C@H](CO)NC(=O)[C@H](CCCNC(=N)N)N(C)C(=O)c2ccccc2CSC[C@@H](C(=O)N2Cc3ccccc3C[C@H]2C(=O)N[C@@H](Cc2ccc(-c3ccccc3)cc2)C(=O)N[C@H](CCCCN)C(N)=O)NC1=O [compound 205] (HELM PEPTIDE1{[meR].S.D.T.L.C.[Tic].[O=C([C@H](Cc1ccc(-c2ccccc2)cc1)N[*:1])[*:2]].[dK].[am]}|CHEM1{[O=C(c1ccccc1C[*:2])[*:1]]}$PEPTIDE1,CHEM1,1:R1-1:R1|PEPTIDE1,CHEM1,6:R3-1:R2$$$V2.0)	0.1 to 1 µM
CC(C)C[C@@H]1NC(=O)[C@H]([C@@H](C)O)NC(=O)[C@H](CC(=O)O)NC(=O)[C@H](CO)NC(=O)[C@H](CCCNC(=N)N)N(C)C(=O)c2ccccc2CSC(C)(C)[C@@H](C(=O)N[C@@H](Cc2c[nH]c3ccccc23)C(=O)N[C@@H](Cc2ccc(-c3ccccc3)cc2)C(=O)N[C@H](CCCCN)C(N)=O)NC1=O [compound 202] (HELM PEPTIDE1{[meR].S.D.T.L.[Pen].W.[O=C([C@H](Cc1ccc(-c2ccccc2)cc1)N[*:1])[*:2]].[dK].[am]}|CHEM1{[O=C(c1ccccc1C[*:2])[*:1]]}$PEPTIDE1,CHEM1,1:R1-1:R1|PEPTIDE1,CHEM1,6:R3-1:R2$$$V2.0)	0.1 to 1 µM
CC(C)C[C@@H]1NC(=O)[C@H]([C@@H](C)O)NC(=O)[C@H](CC(=O)O)NC(=O)[C@H](CO)NC(=O)[C@H](CCCNC(=N)N)N(C)C(=O)CSC(C)(C)[C@@H](C(=O)N[C@@H](Cc2c[nH]c3ccccc23)C(=O)N[C@H](CCCCN)C(N)=O)NC1=O [compound 147]	> 1 µM
CC(C)C[C@@H]1NC(=O)[C@H]([C@@H](C)O)NC(=O)[C@H](CC(=O)O)NC(=O)[C@H](CO)NC(=O)[C@H](CCCNC(=N)N)N(C)C(=O)c2ccccc2CSC(C)(C)[C@@H](C(=O)N[C@@H](Cc2ccc3ccccc3c2)C(=O)N[C@@H](Cc2ccc(-c3ccccc3)cc2)C(=O)N[C@H](CCCCN)C(N)=O)NC1=O [compound 206]	> 1 µM
CC(C)C[C@@H]1NC(=O)[C@H]([C@@H](C)O)NC(=O)[C@H](CCC(=O)O)NC(=O)[C@H](CO)NC(=O)[C@H](CCCNC(=N)N)N(C)C(=O)c2ccccc2CSC(C)(C)[C@@H](C(=O)N[C@@H](Cc2ccccc2)C(=O)N[C@H](CCC(=O)O)C(=O)N[C@H](CCCCN)C(N)=O)NC1=O [compound 189] (HELM PEPTIDE1{[meR].S.E.T.L.[Pen].F.[dE].[dK].[am]}|CHEM1{[O=C(c1ccccc1C[*:2])[*:1]]}$PEPTIDE1,CHEM1,1:R1-1:R1|PEPTIDE1,CHEM1,6:R3-1:R2$$$V2.0)	> 1 µM
180 (RSDTLCXEK; not fully specified; CROSSLINK - N-term 2-Benzyl with a thioether bond between the N-term and the residue at position 6; MOD_RES 1 N-Methyl Arginine; SITE 7 aminoindan-2-carboxylic acid; SITE 8 D-Glu; SITE 9 D-Lys; SITE 9 C-term NH2) [compound 180]	0.1 to 1 µM
CC(C)C[C@@H]1NC(=O)[C@H]([C@@H](C)O)NC(=O)[C@H](CC(=O)O)NC(=O)[C@H](CO)NC(=O)[C@H](CCCNC(=N)N)N(C)C(=O)c2ccccc2CSC(C)(C)[C@@H](C(=O)N[C@@H](Cc2c[nH]c3ccccc23)C(=O)N[C@H](CCC(=O)O)C(=O)N[C@@H](Cc2c[nH]cn2)C(=O)N[C@H](CCCCN)C(N)=O)NC1=O [compound 193] (HELM PEPTIDE1{[meR].S.D.T.L.[Pen].W.[dE].H.[dK].[am]}|CHEM1{[O=C(c1ccccc1C[*:2])[*:1]]}$PEPTIDE1,CHEM1,1:R1-1:R1|PEPTIDE1,CHEM1,6:R3-1:R2$$$V2.0)	< 0.025 µM
181 (RSDTLXWEK; not fully specified; CROSSLINK - N-term 2-Benzyl with a thioether bond between the N-term and the residue at position 6; MOD_RES 1 N-Methyl Arginine; SITE 6 D-Penicillamine; SITE 9 D-Lys; SITE 9 C-term NH2) [compound 181]	> 1 µM
